Patent US8927063B2, “Compositions for the treatment of timber and other wood substrates” (TimTechChem International Limited, priority 2008, dated 2015)

What was measured:
[1] = Example 3: solubility and formulation stability in ester solvents
Experimental: Further formulation tests were carried out to ascertain if the fungicide IPBC (iodo propyl butyl carbamate, CAS No 55406-53-6) was soluble in ester compounds of formula (I).

[2] = Example 2: solvent evaporation rate from treated wood pieces (daily re-weighing); details: 17-22 °C, no external airflow
Experimental: The wood pieces were placed on plastic bearers allowing good access of air to all surfaces and situated in a dedicated room with no external airflow. Air temperatures in the room were mainly in the range 17-22° C.
The wood pieces were re-weighed daily to determine weight loss rates for the various solvents.

SMILES | solubility ([1]; in butyl ethanoate) | solubility ([1]; in propyl ethanoate) | % Solvent Remaining in Wood ([2]; After 24 h) [%] | % Solvent Remaining in Wood ([2]; After 48 h) [%] | % Solvent Remaining in Wood ([2]; After 72 h) [%] | solubilisation in the esters of the invention [1]
N#Cc1c(Cl)c(Cl)c(Cl)c(C#N)c1Cl [chlorothalonil] | less than 1% | less than 1% |  |  |  | 
CCOC(C)=O [ethyl ethanoate] |  |  | 3.8 | 0 | 0 | 
CCCCOC(C)=O [n-butyl ethanoate] |  |  | 6.9 | 3.1 | 0.8 | 
CC(C)(C)C(O)(CCc1ccc(Cl)cc1)Cn1cncn1 (stereo not drawn) [tebuconazole] |  |  |  |  |  | good solubilisation
